This passage reports IC50 and Ki results from ChEMBL document CHEMBL1159113, “Investigation of Beckett-Casy model 1: synthesis of novel 16,17-seco-naltrexone derivatives and their pharmacology” (Bioorg Med Chem Lett, 2010).

In assay [1] the target is Kappa-type opioid receptor (Cavia porcellus, UniProt P41144). Nature of the assay: Displacement of [3H]U69,593 from kappa opioid receptor in guinea pig cerebellum. The class given is tissue-based. On the technique in general: Loss of bound radioactivity is the signal in a displacement assay; it reports binding, not function.
Assay [2] is described as follows: Displacement of [3H]NTI from delta opioid receptor in guinea pig forebrain. More on the design: species or system Cavia porcellus.
The next assay deals with Mu-type opioid receptor (Cavia porcellus, UniProt P97266). Description: Displacement of [3H]DAMGO from mu opioid receptor in guinea pig forebrain.

Bounds are passed on as bounds.

Kappa-type opioid receptor, sequence (P41144 whole entry): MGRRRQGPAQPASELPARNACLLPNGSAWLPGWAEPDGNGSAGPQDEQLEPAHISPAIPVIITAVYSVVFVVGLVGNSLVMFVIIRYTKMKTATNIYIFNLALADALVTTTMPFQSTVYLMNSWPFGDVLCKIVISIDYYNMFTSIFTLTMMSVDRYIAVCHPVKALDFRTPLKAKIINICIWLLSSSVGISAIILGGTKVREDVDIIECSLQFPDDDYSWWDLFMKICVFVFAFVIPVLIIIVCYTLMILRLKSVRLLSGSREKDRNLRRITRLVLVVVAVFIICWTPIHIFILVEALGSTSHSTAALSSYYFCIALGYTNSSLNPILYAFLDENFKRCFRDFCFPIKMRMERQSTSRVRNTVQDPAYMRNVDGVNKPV
Mu-type opioid receptor, sequence (P97266 whole entry): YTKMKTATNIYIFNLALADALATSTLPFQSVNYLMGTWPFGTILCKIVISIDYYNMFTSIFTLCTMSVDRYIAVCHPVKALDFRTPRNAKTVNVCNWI

On to `CN(CC1CC1)[C@@H]1Cc2ccc(O)c3c2[C@@]2(CCO3)CC(=O)CC[C@@]12O`, for which the IC50 (in assay [1]; in assay [2]; on Mu-type opioid receptor) was > 1000 nM throughout.

`CC[C@]12c3c4ccc(O)c3O[C@H]1C(=O)CC[C@@]2(O)[C@H](NCC1CC1)C4`: the figures for the Ki (in assay [1]; in assay [2]; on Mu-type opioid receptor) were 275 nM, 24.1 nM and 26.3 nM, respectively.

Consider `CC[C@]12c3c4ccc(O)c3O[C@H]1C(=O)CC[C@@]2(O)[C@H](N(C)CC1CC1)C4`, for which the IC50 (in assay [1]; on Mu-type opioid receptor) was > 1000 nM in each case. Besides, the Ki (in general, a dissociation constant, usually derived from enzyme kinetics or from competition with a known ligand) in assay [2] was 77.6 nM.

For the compound `CN(CC1CC1)C1Cc2ccc(O)c3c2[C@@]2(CCn4ccnn4)[C@@H](O3)C(=O)CC[C@@]12O` (stereo partly specified), the IC50 (in assay [1]; in assay [2]; on Mu-type opioid receptor) was > 1000 nM throughout.

On to `CN(CC1CC1)[C@@H]1Cc2ccc(O)c3c2[C@]24CCO[C@]12CCC(=O)[C@@H]4O3`, for which, in assay [1], the IC50 (as a rule, the concentration needed to halve the response being measured) is > 1000 nM. The results for the Ki (in assay [2]; at Mu-type opioid receptor) were 43.2 nM and 24 nM, respectively.

Turning to `C=C[C@]12c3c4ccc(O)c3O[C@H]1C(=O)CC[C@@]2(O)[C@H](NCC1CC1)C4`, the Ki in assay [1] came out at 193 nM; in assay [2] it was 4.73 nM; at Mu-type opioid receptor, 8.6 nM.

In the case of `C=C[C@]12c3c4ccc(O)c3O[C@H]1C(=O)CC[C@@]2(O)[C@H](N(C)CC1CC1)C4`, the Ki was 200 nM in assay [1], 39.7 nM in assay [2] and 26.4 nM at Mu-type opioid receptor.
